Experimental data taken from patent US20200017496A1 (priority 2017, published 2020).
Like-named read-outs stand apart in the source and are kept apart here.

Tests used:
Format in all cases: cell-based
[1] = test system: Enterobacter aerogenes (EAE) isolates; assay: MIC of compounds alone and combined with antibacterials, broth microdilution (CLSI); details: for MIC ATB in combination: AF1 @ 4 μg/mL; for MIC: Klebsiella aerogenes, ATB alone, read-out: MIC
Protocol: (§1) Method 2: MIC of Compounds Alone and Combined with Antibacterials Against Bacterial Isolates.
(§2) Compounds of the present invention were assessed against genotyped bacterial strains (Table 3, 4) alone or in combination with an antibacterial (Table 2). […] Log phase bacterial suspensions were adjusted to a final density of 5·10^5 CFU/mL in cation-adjusted Mueller-Hinton broth (ca-MHB; Becton-Dickinson and Company) and added to each well (98 μL). Microplates were incubated for 16-20 h at 35° C. in ambient air. The MIC of the compounds was defined as the lowest concentration of said compounds that prevented bacterial growth as read by visual inspection. The MIC of ATB at each compound concentration was defined as the lowest concentration of ATB that prevented bacterial growth as read by visual inspection.

[2] = test system: Providencia stuartii (PST) isolates; assay: as above; details: AF1 @ 4 μg/mL
Protocol: as §1, §2

[3] = test system: Serratia marcescens (SMA) isolates; assay: as above; details: for MIC: Serratia marcescens, ATB alone, read-out: MIC
Protocol: as §1, §2

[4] = test system: Escherichia coli (ECO) isolates; assay: as above; details: AF1 @ 4 μg/mL
Protocol: as §1, §2

[5] = test system: Morganella morganii (MMO) isolates; assay: as above; details: AF1 @ 4 μg/mL
Protocol: as §1, §2

[6] = test system: Proteus mirabilis (PMI) isolates; assay: microbe, parasite or virus in culture; details: AF1 @ 4 μg/mL
Outline: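 First, log-phase suspensions are brought to a final 5·10^5 CFU/mL in cation-adjusted Mueller-Hinton broth. Then plates with compound, antibacterial, or both incubate 16-20 h at 35° C under ambient air. Finally, visual inspection gives the lowest growth-preventing concentration for each agent.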

C=CC1=C(C(=O)O)N2C(=O)[C@@H](NC(=O)/C(=N\O)c3csc(N)n3)[C@H]2SC1 [CDR, Cefdinir]
MIC ATB in combination ([1]; EAE 49469): 16 µg/mL
MIC ATB in combination ([1]; EAE 200261): 8 µg/mL
MIC ATB in combination ([1]; EAE UFR199): 1 µg/mL
MIC ATB in combination ([1]; EAE UFR201): <=0.25 μg/mL
MIC ATB in combination ([1]; EAE UFR202): 4 µg/mL
MIC ATB in combination ([1]; EAE UFR213): 4 µg/mL
MIC ([1]; strain EAE 200261 (TEM-x, AmpC)): > 256 µg/mL
MIC ([1]; strain EAE UFR199 (TEM-1b, SHV-12, KPC-2, OXA-9)): > 256 µg/mL
MIC ATB in combination ([2]; PST UFR94): <=0.25 μg/mL
MIC ATB in combination ([2]; PST UFR95): 1 µg/mL
MIC ATB in combination ([2]; PST UFR235): 2 µg/mL
MIC ATB in combination ([3]; SMA UFR30, AF1 @ 4 μg/mL): 1 µg/mL
MIC ATB in combination ([3]; SMA UFR134, AF1 @ 4 μg/mL): 4 µg/mL
MIC ATB in combination ([3]; SMA UFR135, AF1 @ 4 μg/mL): 16 µg/mL
MIC ATB in combination ([3]; SMA UFR136, AF1 @ 4 μg/mL): 16 µg/mL
MIC ATB in combination ([3]; SMA UFR137, AF1 @ 4 μg/mL): 1 µg/mL
MIC ATB in combination ([3]; SMA UFR138, AF1 @ 4 μg/mL): 4 µg/mL
MIC ATB in combination ([3]; SMA UFR139, AF1 @ 4 μg/mL): 4 µg/mL
MIC ATB in combination ([3]; SMA UFR141, AF1 @ 4 μg/mL): 4 µg/mL
MIC ATB in combination ([3]; SMA UFR142, AF1 @ 4 μg/mL): 8 µg/mL
MIC ATB in combination ([3]; SMA UFR143, AF1 @ 4 μg/mL): 2 µg/mL
MIC ATB in combination ([3]; SMA UFR239, AF1 @ 4 μg/mL): 16 µg/mL
MIC ([3]; strain SMA UFR238 (OXA-48)): > 256 µg/mL
MIC ([3]; strain SMA UFR30 (OXA-405)): > 256 µg/mL
MIC ([3]; strain SMA UFR136 (TEM-1, SHV-12, KPC-2)): > 256 µg/mL
MIC ([3]; strain SMA UFR141 (OXA-48)): > 256 µg/mL
MIC ([3]; strain SMA UFR142 (OXA-48)): > 256 µg/mL
MIC ([3]; strain SMA UFR143 (CTX-M-15, OXA-1, OXA-48)): > 256 µg/mL
MIC ATB in combination ([3]; strain SMA UFR238, antibacterial combined with AF1 @ 4 μg/mL): 4 µg/mL
MIC ATB in combination ([4]; ECO 4133): <=0.25 μg/mL
MIC ATB in combination ([4]; ECO 5302): <=0.25 μg/mL
MIC ATB in combination ([4]; ECO 131119): <=0.25 μg/mL
MIC ATB in combination ([4]; ECO 180070): <=0.25 μg/mL
MIC ATB in combination ([4]; ECO 190314): <=0.25 μg/mL
MIC ATB in combination ([4]; ECO 190317): <=0.25 μg/mL
MIC ATB in combination ([4]; ECO 190457): <=0.25 μg/mL
MIC ATB in combination ([4]; ECO 190549): <=0.25 μg/mL
MIC ATB in combination ([4]; ECO 200159): <=0.25 μg/mL
MIC ATB in combination ([4]; ECO 200259): <=0.25 μg/mL
MIC ATB in combination ([4]; ECO 200344): <=0.25 μg/mL
MIC ATB in combination ([4]; ECO 260096): <=0.25 μg/mL
MIC ATB in combination ([4]; ECO 260304): <=0.25 μg/mL
MIC ATB in combination ([4]; ECO 260508): <=0.25 μg/mL
MIC ATB in combination ([4]; ECO RGN238): <=0.25 μg/mL
MIC ATB in combination ([4]; ECO UFR15): <=0.25 μg/mL
MIC ATB in combination ([4]; ECO UFR16): 1 µg/mL
MIC ATB in combination ([4]; ECO UFR18): 4 µg/mL
MIC ATB in combination ([4]; ECO UFR19): 2 µg/mL
MIC ATB in combination ([4]; ECO UFR20): 16 µg/mL
MIC ATB in combination ([4]; ECO UFR61O): 0.25 µg/mL
MIC ATB in combination ([4]; ECO UFR62): 0.5 µg/mL
MIC ATB in combination ([4]; ECO UFR74): 1 µg/mL
MIC ATB in combination ([4]; ECO UFR86): 1 µg/mL
MIC ATB in combination ([4]; ECO UFR174): <=0.25 μg/mL
MIC ATB in combination ([4]; ECO UFR175): 0.5 µg/mL
MIC ATB in combination ([4]; ECO UFR176): <=0.25 μg/mL
MIC ATB in combination ([4]; ECO UFR184): 16 µg/mL
MIC ATB in combination ([4]; ECO UFR186): 1 µg/mL
MIC ATB in combination ([4]; ECO UFR187): 0.5 µg/mL
MIC ATB in combination ([4]; ECO UFR189): <=0.25 μg/mL
MIC ATB in combination ([4]; ECO UFR190): 0.5 µg/mL
MIC ATB in combination ([4]; ECO UFR191): 1 µg/mL
MIC ATB in combination ([4]; ECO UFR207): <=0.25 μg/mL
MIC ATB in combination ([4]; ECO UFR209): <=0.25 μg/mL
MIC ATB in combination ([4]; ECO UFR210): <=0.25 μg/mL
MIC ATB in combination ([4]; ECO UFR211): <=0.25 μg/mL
MIC ATB in combination ([4]; ECO UFR212): 32 µg/mL
MIC ATB in combination ([4]; ECO UFR218): <=0.25 μg/mL
MIC ATB in combination ([5]; MMO 200321): 4 µg/mL
MIC ATB in combination ([5]; MMO UFR144): 4 µg/mL
MIC ATB in combination ([5]; MMO UFR240): 0.5 µg/mL
MIC ATB in combination ([5]; MMO UFR241): 4 µg/mL
MIC ATB in combination ([5]; MMO UFR242): 4 µg/mL
MIC ATB in combination ([5]; MMO UFR243): 4 µg/mL
MIC ATB in combination ([5]; MMO UFR244): 2 µg/mL
MIC ATB in combination ([5]; MMO UFR245): 4 µg/mL
MIC ATB in combination ([5]; MMO UFR246): 2 µg/mL
MIC ATB in combination ([5]; MMO UFR247): 1 µg/mL
MIC ATB in combination ([6]; PMI UFR82): 0.5 µg/mL
MIC ATB in combination ([6]; PMI UFR120): <=0.25 μg/mL
MIC ATB in combination ([6]; PMI UFR121): <=0.25 μg/mL
MIC ATB in combination ([6]; PMI UFR122): <=0.25 μg/mL
MIC ATB in combination ([6]; PMI UFR123): <=0.25 μg/mL
MIC ATB in combination ([6]; PMI UFR124): <=0.25 μg/mL
MIC ATB in combination ([6]; PMI UFR125): <=0.25 μg/mL
MIC ATB in combination ([6]; PMI UFR126): <=0.25 μg/mL
MIC ATB in combination ([6]; PMI UFR127): <=0.25 μg/mL
MIC ATB in combination ([6]; PMI UFR129): <=0.25 μg/mL
MIC ATB in combination ([6]; PMI UFR130): <=0.25 μg/mL
MIC ATB in combination ([6]; PMI UFR237): <=0.25 μg/mL
